Assay [1] relates to Interleukin-2 (IL-2) production/release. The assay is described as follows: Jurkat IL-2 Production Assay. The format is cell-based. The following applies: Homo sapiens; Jurkat T cells clone E6-1, 15 μg/ml PHA for 22 hours, IL-2 in supernatant. How it is done: Jurkat IL-2 Production Assay
The effect of compounds of the invention on Interleukin-2 (IL-2) production/release was tested in the Jurkat T cell line (ECACC) clone E6-1.
Jurkat T cells were cultured in DMEM/F12/Glutamax (Gibco) containing 10% FCS (Gibco), and maintained at 37° C., 5% CO2. Cell were split twice a week [5*10^6 (Mon-Thu) and 1*10^7 (Thu-Mon) cells/50 ml medium in T-175 ZK culture flasks, respectively].
Prior to experiment, cells were seeded on 96 well plates (Cellstar 96 Well; Cat No. 655180, Greiner bio-one) at a density of 5*10^5 cells/well in DMEM/F12/Glutamax (Gibco) containing 10% FCS (Gibco), and incubated for 60 min at 37° C., 5% CO2. Subsequently, compounds were added and cells were allowed to incubate for 30 min at 37° C., 5% CO2. Cells were then stimulated with 15 μg/ml Phytohemagglutinin (PHA; Sigma) for 22 hours at 37° C., 5% CO2.
Before sampling of the supernatants, cells were spun down (200*g/5 min/RT). The amount of IL-2 released into the supernatant was quantified with the human IL-2 AlphaLisa kit (Perkin Elmer) according to manufacturer's instructions. Luminescence proximity measurements were carried out in the Synergy H4 reader (BioTek) employing the fluorescence setting of the reader (ex: 680/30 nm; em: 620/40 nm).
Inhibition of IL-Production/Release in/from Jurkat T Cells was Quantified as Follows:
Zero percent inhibition (MAX) was defined as the [IL-2] determined in supernatants derived from cells to which PHA & DMSO-only had been added instead of compound. Hundred percent inhibition (MIN) was defined as the [IL-2] determined in supernatants derived from cells that had been pre-treated with 1 μM CyclosporineA (Sigma) before the addition of 15 μg/ml PHA.
For routine IC50 determinations of compounds, 8 concentrations of a serial dilution (1:3.16) were tested, starting off from 10 μM.

The target in assay [2] is T1, CRAC channel (Homo sapiens, UniProt Q96D31).
T1 construct: host or cells: HEK293
T1 sequence (Q96D31 whole entry): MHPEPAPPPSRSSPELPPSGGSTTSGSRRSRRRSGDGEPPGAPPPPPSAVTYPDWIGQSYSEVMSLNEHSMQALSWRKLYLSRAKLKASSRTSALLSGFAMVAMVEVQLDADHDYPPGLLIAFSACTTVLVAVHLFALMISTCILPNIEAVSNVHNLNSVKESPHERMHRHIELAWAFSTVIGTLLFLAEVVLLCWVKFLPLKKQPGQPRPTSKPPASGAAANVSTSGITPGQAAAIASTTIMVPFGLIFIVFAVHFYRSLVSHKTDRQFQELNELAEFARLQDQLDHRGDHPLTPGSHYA
Put plainly: HEK Calcium Influx Assay (FLIPR). The format is cell-based. The following applies: 10 μM; endogenous SOC in HEK293 cells, thapsigargin store depletion, Ca2+ signal 9.5-10 min post-administration; read-out: % inhib.[@ 10 μM] FLIPR. How it is done:
The effect of compounds of the invention on intracellular [Ca^2+] was tested in the HEK293 cell line (ECACC).
HEK293 cells were cultured in DMEM/F12/Glutamax (Gibco) containing 10% FCS (Gibco), and maintained at 37° C., 5% CO2. Cell were split twice a week [3*10^6 (Mon-Thu) and 1*10^6 (Thu-Mon) cells/50 ml medium in T-175 ZK culture flasks, respectively]. Twenty four hours pre-experiment, cells were seeded on 96 well plates (Poly-D-Lysine 96well Black/Clear Plate, BD Biocoat REF 356640) at a density of 40,000 cells/well in DMEM/F12 (Gibco) containing 10% FCS (Gibco), and maintained at 37° C., 5% CO2.
Prior to store-depletion, cell culture medium was removed and cells were loaded with the a Calcium-sensitive fluorescent dye comprised within the Calcium-4-assay kit (Molecular Devices) in nominally Ca^2+-free HBS buffer (140 mM NaCl, 4 mM KCl, 0.2 mM MgCl2, 11 mM D-glucose, and 10 mM HEPES, pH 7.4) according to manufacturer's instruction for 60 min at 37° C., 5% CO2.
Passive depletion of intracellular Ca^2+-stores was then triggered by employing the SERCA inhibitor thapsigargin (2 μM final) for 10 min in the dark (RT). To prevent immediate Ca^2+-entry via the activated Store-operated channels (SOCs), cells were maintained in Ca^2+-free HBS buffer comprising 100 μM EGTA during store-depletion.
Intracellular changes in [Ca^2+] were subsequently monitored with the FLIPR device (Molecular Devices). In brief, baseline imaging post-store depletion was allowed for 1 min before adjusting the extracellular buffer to 3 mM CaCl2. Increases in intracellular [Ca^2+] due to pre-activated SOC channels were monitored for 15 min until intracellular Ca^2+ levels had declined into a steady-state. Finally, compounds were administered and Ca^2+ signals were recorded for additional 10 min.
Inhibition of endogenous SOC in HEK293 cells was quantified employing the average Ca^2+ signal measured from 9.5-10 min post-administration. Zero percent inhibition (MAX) was defined as the Ca^2+ signal recorded from wells to which DMSO-only had been added instead of compound. Hundred percent inhibition (MIN) was defined as the signal obtained from wells in which cells haven't been treated with TG prior to Ca^2+ addition and to which DMSO-only had been added instead of compound. For routine IC50 determinations of compounds, 8 concentrations of a serial dilution (1:3.16) were tested, starting off from 10 μM. Reliable IC50's could consequently be determined only, if they were at least sub 2.5-3 μM.

The source of these data is patent publication US9078899B2, “Pyrazolyl-based carboxamides II” (Grünenthal GmbH, priority 2013, dated 2015).

Structures are written as SMILES. Where only a bound is given, the exact number is not on record here.

As a reminder, the IC50 is the point on the concentration scale where inhibition reaches its midpoint.

Take `COc1ccc(F)cc1-c1cc(C(=O)Nc2c(F)cccc2F)nn1C` [Example 10, N-(2,6-Difluoro-phenyl)-5-(5-fluoro-2-methoxy-phenyl)-1-methyl-1H-pyrazole-3-carboxylic acid amide]: the IC50 in assay [1] is 0.5 to 1 µM. Besides, the inhibition at 10 µM in assay [2] was above 70%.
The like results for `Cn1nc(C(=O)Nc2c(F)cccc2F)cc1-c1ccccc1C(F)(F)F` [Example 7, N-(2,6-Difluoro-phenyl)-1-methyl-5-[2-(trifluoromethyl)-phenyl]-1H-pyrazole-3-carboxylic acid amide] were, in that order, 0.5 to 1 µM and above 70%.
For the compound `Cn1nc(C(=O)Nc2c(F)cccc2F)cc1-c1ccc(OC(F)(F)F)cc1Cl` [Example 12, 5-[2-Chloro-4-(trifluoromethyloxy)-phenyl]-N-(2,6-difluoro-phenyl)-1-methyl-1H-pyrazole-3-carboxylic acid amide], in assay [1], the IC50 lay in the range of 0.5 to 1 µM. In assay [2], the inhibition at 10 µM was above 70%.
The like results for `Cn1nc(C(=O)Nc2c(F)cncc2F)cc1-c1c(F)cccc1C(F)(F)F` [Example 49, N-(3,5-Difluoro-pyridin-4-yl)-5-[2-fluoro-6-(trifluoromethyl)-phenyl]-1-methyl-1H-pyrazole-3-carboxylic acid amide] were, in that order, 1 to 5 µM and above 70%.
Consider `COc1ccc(OC)c(-c2c(Cl)c(C(=O)Nc3ccncc3F)nn2C)c1` [Example 40, 4-Chloro-5-(2,5-dimethoxyphenyl)-N-(3-fluoro-pyridin-4-yl)-1-methyl-1H-pyrazole-3-carboxylic acid amide], for which, in assay [1], the IC50 lay within 1 to 5 µM. For the same compound, the inhibition at 10 µM in assay [2] was above 70%.
As for `COc1ccccc1-c1cc(C(=O)Nc2c(F)cccc2F)nn1C` [Example 1, N-(2,6-Difluoro-phenyl)-5-(2-methoxyphenyl)-1-methyl-1H-pyrazole-3-carboxylic acid amide], the 50% inhibitory concentration (IC50) in assay [1] lay in the range of 1 to 5 µM. Also, in assay [2], the inhibition at 10 µM was above 70%.
On the same counts, the results for `CCOc1ccc(OC)cc1-c1cc(C(=O)Nc2c(F)cccc2F)nn1C` [Example 4, N-(2,6-Difluoro-phenyl)-5-(2-ethoxy-5-methoxy-phenyl)-1-methyl-1H-pyrazole-3-carboxylic acid amide] are 0.5 to 1 µM and above 70%.
As for `CNc1c(C(=O)Nc2c(F)cncc2F)nn(C)c1-c1cc(OC)ccc1OC` [Example 67, N-(3,5-Difluoro-pyridin-4-yl)-5-(2,5-dimethoxyphenyl)-1-methyl-4-methylamino-1H-pyrazole-3-carboxylic acid amide], in assay [1], the IC50 lay in the range of 1 to 5 µM. In addition, in assay [2], the inhibition at 10 µM was below 50%.
For the compound `COc1ccc(OC)c(-c2cc(C(=O)Nc3ncncc3C)nn2C)c1` [Example 18, 5-(2,5-Dimethoxyphenyl)-1-methyl-N-(5-methyl-pyrimidin-4-yl)-1H-pyrazole-3-carboxylic acid amide], the IC50 in assay [1] lay in the range of 1 to 5 µM. Moreover, the inhibition at 10 µM in assay [2] is below 50%.
On the same counts, the results for `COc1ccc(OC)c(-c2c(C)c(C(=O)Nc3ccncc3F)nn2C)c1` [Example 25, 5-(2,5-Dimethoxyphenyl)-N-(3-fluoro-pyridin-4-yl)-1,4-dimethyl-1H-pyrazole-3-carboxylic acid amide] are 0.5 to 1 µM and above 70%.
The like results for `CCOc1ccc(OC)cc1-c1cc(C(=O)Nc2ccncc2F)nn1C` [Example 3, 5-(2-Ethoxy-5-methoxy-phenyl)-N-(3-fluoro-pyridin-4-yl)-1-methyl-1H-pyrazole-3-carboxylic acid amide] were, in that order, 1 to 5 µM and below 50%.
The like results for `COc1ccc(OC(F)(F)F)c(-c2cc(C(=O)Nc3ccncc3F)nn2C)c1` [Example 9, N-(3-Fluoro-pyridin-4-yl)-5-[5-methoxy-2-(trifluoromethyloxy)-phenyl]-1-methyl-1H-pyrazole-3-carboxylic acid amide] were, in that order, 1 to 5 µM and above 70%.
Consider `COc1cc(S(C)(=O)=O)ccc1-c1cc(C(=O)Nc2c(F)cccc2F)nn1C` [Example 66, N-(2,6-Difluoro-phenyl)-5-(2-methoxy-4-methylsulfonyl-phenyl)-1-methyl-1H-pyrazole-3-carboxylic acid amide], for which, in assay [1], the IC50 is 1 to 5 µM. In addition, the inhibition at 10 µM in assay [2] is below 50%.
The like results for `COc1ccc(OC)c(-c2cc(C(=O)Nc3c(F)cccc3Cl)nn2C)c1` [Example 35, N-(2-Chloro-6-fluoro-phenyl)-5-(2,5-dimethoxyphenyl)-1-methyl-1H-pyrazole-3-carboxylic acid amide] were, in that order, below 0.5 µM and above 70%.
With `Cc1ccc(C(F)(F)F)cc1-c1cc(C(=O)Nc2c(F)cccc2F)nn1C` [Example 30, N-(2,6-Difluoro-phenyl)-1-methyl-5-[2-methyl-5-(trifluoromethyl)-phenyl]-1H-pyrazole-3-carboxylic acid amide], the IC50 in assay [1] fell in the range of 0.5 to 1 µM. The inhibition at 10 µM in assay [2] was above 70%.
Turning to `COc1ccc(OC)c(-c2cc(C(=O)Nc3c(C)cccc3F)nn2C)c1` [Example 32, 5-(2,5-Dimethoxyphenyl)-N-(2-fluoro-6-methyl-phenyl)-1-methyl-1H-pyrazole-3-carboxylic acid amide], the concentration for half-maximal inhibition (IC50) in assay [1] is below 0.5 µM. In addition, the inhibition at 10 µM in assay [2] was above 70%.
On the same counts, the results for `Cn1nc(C(=O)Nc2c(F)cccc2F)cc1-c1cc(OC(F)(F)F)ccc1C1CC1` [Example 45, 5-[2-Cyclopropyl-5-(trifluoromethyloxy)-phenyl]-N-(2,6-difluoro-phenyl)-1-methyl-1H-pyrazole-3-carboxylic acid amide] are 0.5 to 1 µM and above 70%.
